Data as given in ChEMBL document CHEMBL4304807, “Modulators of KEAP-1 Activity as Potential Therapies for the Treatment of Neurodegenerative Disorders” (ACS Med Chem Lett, 2019).

Biological target: Kelch-like ECH-associated protein 1 (Homo sapiens, UniProt Q14145)
Assay: Inhibition of KEAP1 interaction with Nrf2 in human HEK293 cells transfected with ARE-LUC assessed as activation of Nrf2 signaling pathway measured after 18 hrs by steady-Glo luciferase assay
Assay type: cell-based

Sequence of Kelch-like ECH-associated protein 1 (Q14145 whole entry): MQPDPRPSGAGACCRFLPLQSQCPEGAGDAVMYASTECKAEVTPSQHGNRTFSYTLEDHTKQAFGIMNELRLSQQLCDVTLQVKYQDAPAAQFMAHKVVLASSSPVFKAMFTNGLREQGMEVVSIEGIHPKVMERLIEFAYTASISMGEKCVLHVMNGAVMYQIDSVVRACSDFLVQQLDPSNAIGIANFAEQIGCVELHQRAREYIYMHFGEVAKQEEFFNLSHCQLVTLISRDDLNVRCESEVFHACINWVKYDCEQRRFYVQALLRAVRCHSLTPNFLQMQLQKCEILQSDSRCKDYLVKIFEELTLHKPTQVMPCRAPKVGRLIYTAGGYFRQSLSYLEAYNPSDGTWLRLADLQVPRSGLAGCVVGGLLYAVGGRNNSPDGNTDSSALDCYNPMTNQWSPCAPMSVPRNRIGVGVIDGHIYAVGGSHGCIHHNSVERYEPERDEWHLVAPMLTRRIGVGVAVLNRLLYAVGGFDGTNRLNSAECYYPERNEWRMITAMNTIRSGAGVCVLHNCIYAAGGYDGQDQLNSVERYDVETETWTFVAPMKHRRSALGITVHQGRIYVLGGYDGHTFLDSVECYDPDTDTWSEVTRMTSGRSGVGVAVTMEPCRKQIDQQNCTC

EC50 [nM] | Structure (SMILES)
18 | COC1(c2ncc(F)cc2C(F)F)C=C(C#N)C(=O)C2(CC2)C1 (centres undefined)
24 | COC1(c2ncccc2C(F)(F)F)C=C(C#N)C(=O)C(C)(C)C1 (centres undefined)
8 | COC1(c2ncc(F)cc2OC(F)F)C=C(C#N)C(=O)C(C)(C)C1 (centres undefined)
7 | COC1(c2ncc(F)cc2-c2cnc(C)s2)C=C(C#N)C(=O)C(C)(C)C1 (centres undefined)
